Source: patent publication US20250129088A1, “CEREBLON E3 UBIQUITIN LIGASE INHIBITOR” (Gan & Lee Pharmaceuticals Co., Ltd., priority 2022, published 2025)

What was measured:
JeKo-1 cells = assay: JeKo-1 cell proliferation inhibition, CCK-8; format: cell-based; conditions: Homo sapiens, 96 h, JeKo-1, 4 days
Experimental: The complete medium required for JeKo-1 cells is RPMI1640 (ATCC, Product number: 30-2001) basal medium containing 20% fetal bovine serum. The JeKo-1 cells were seeded in a 96-well plate at a density of 10,000 cells/well, and different concentrations of the compounds of the present invention were prepared to treat the cells at the same time. The cells were incubated at a 37° C., 5% CO2 cell culture incubator for 4 days. Cell viability was detected using the CCK-8 kit (Beyotime, Product number: C0040) according to the manufacturer's instructions. According to the inhibition rate, the GraphPad Prism software was used to calculate the IC50 value of each compound for 4 days, and the results are shown in Table 13.

Z138 cells = assay: Z138 cell proliferation inhibition, CCK-8; format: cell-based; conditions: Homo sapiens, Z-138, 96 h, Z138, 4 days
Experimental: The complete medium required for Z138 cells is IMDM (ATCC, Product number: 30-2005) basal medium containing 10% horse serum. Z138 cells were seeded in a 96-well plate at a density of 10,000 cells/well, and different concentrations of the compound of the present invention and a positive control sample Ibrutinib (source: Bide Pharmaceuticals) were prepared to treat the cells. The cells were incubated in a 37° C., 5% CO2 cell incubator for 4 days. Cell viability was detected using the CCK-8 kit (Beyotime, Product number: C0040) according to the manufacturer's instructions. According to the inhibition rate, the GraphPad Prism software was used to calculate the IC50 value of each compound for 4 days, and the results are shown in Table 14.

In the case of `Nc1ncnc2c1c(-c1ccc(Oc3ccccc3)cc1)nn2[C@@H]1CCCN(CCOCCC(=O)N2CCC3(CCc4cc5c(cc4O3)C(=O)N(C3CCC(=O)NC3=O)C5)CC2)C1` (stereo partly drawn) [PROTAC 36, 3-(1-(3-(2-((R)-3-(4-amino-3-(4-phenoxyphenyl)-1H-pyrazolo[3,4-d]pyrimidine-1-yl)piperidin-1-yl)ethoxy)propionyl)-8′-oxo-3′,4′,6′,8′-tetrahydro-7′H-spiro[piperidine-4, 2′-pyrano[2,3-f]isoindol]-7′-yl)piperidine-2,6-dione], the IC50 (JeKo-1 cells) is reported as 19.2 µM and the IC50 (Z138 cells) is reported as 25.4 µM.

`Nc1ncnc2c1c(-c1ccc(Oc3ccccc3)cc1)nn2[C@@H]1CCCN(CCOCCC(=O)N2CCC3(CC2)COc2cc4c(cc2O3)CN(C2CCC(=O)NC2=O)C4=O)C1` (stereo partly drawn) [PROTAC 37, 3-(1-(3-(2-((R)-3-(4-amino-3-(4-phenoxyphenyl)-1H-pyrazolo[3,4-d]pyrimidine-1-yl)piperidin-1-yl)ethoxy)propionyl)-6′-oxo-6′,8′-dihydro-3′H,7′H-spiro[piperidine-4,2′-[1,4]dioxino[2,3-f]isoindole]-7′-yl)piperidine-2,6-dione] showed an IC50 (JeKo-1 cells) of 32.4 µM and an IC50 (Z138 cells) of 36.1 µM.
